Data on 14 compounds can be found in article PMC6154583, “Optimized 4,5-Diarylimidazoles as Potent/Selective Inhibitors of Protein Kinase CK1δ and Their Structural Relation to p38α MAPK” (Molecules : A Journal of Synthetic Chemistry and Natural …, 2017).

SMILES strings stand for the structures.

The test system of one data set is HT-29 cells. Kind of data set: MTT viability assay. The format is cell-based. The settings on record: Homo sapiens, dilution series. As for the experimental part: (§1) The human pancreatic cancer cell lines Colo357 [61], Panc-1 [62], and MiaPaCa-2 [63] were grown in Dulbecco’s modified Eagle’s medium (DMEM). Panc89 [64] was grown in DMEM:RPMI-1640 medium in ratio 1:1. The human colon adenocarcinoma cell line HT-29 [65] was grown in McCoy’s 5A medium. All media were supplemented with 10% fetal calf serum (FCS), 100 units·mL^−1 penicillin, 100 µg∙mL^−1 streptomycin and 2 mM glutamine. All cells were grown at 37 °C in a humidified 5% carbon dioxide atmosphere.
In order to determine the cytotoxic effects of investigated inhibitors conventional MTT assay were used. 1 × 10^4 cells∙well^−1 were seeded in 96-well cell culture plates and cultivated for 24 h. Cell lines were exposed to increasing concentrations of the indicated inhibitor compounds, with untreated and DMSO-treated cells serving as control. After an incubation period of 48 h 10 µL of MTT solution (5 mg∙mL^−1 in PBS) were added and cells were incubated for 4 h. […] Finally, dissolved crystals were measured spectrophotometrically at 570 nM. […]
Figure S1. (A) HT-29 cells were treated with compounds of series 1 at 20 µM concentration and cell viability was measured by MTT viability assay. […]
screening at 20 µM concentration. Cell viability was determined by MTT assay and the EC50 value was calculated using GraphPad Prism 6. […]

For the next data set, the system named is Colo357 cells. Kind of data set: MTT viability assay. The format is cell-based, human. The settings on record: mean ± SD, n = 3. As for the experimental part: as §1
(§2) In order to determine the cytotoxic effects of investigated inhibitors conventional MTT assay were used. 1 × 10^4 cells∙well^−1 were seeded in 96-well cell culture plates and cultivated for 24 h. Cell lines were exposed to increasing concentrations of the indicated inhibitor compounds, with untreated and DMSO-treated cells serving as control. After an incubation period of 48 h 10 µL of MTT solution (5 mg∙mL^−1 in PBS) were added and cells were incubated for 4 h. MTT-containing medium was carefully removed and 100 µL acidic isopropanol (0.04 N HCl in isopropanol) per well were added. For dissolution of formazan crystals plates were shaken for 30 min on an orbital shaker in the dark. Finally, dissolved crystals were measured spectrophotometrically at […]. All experiments were performed in triplicate with four technical replicates per assay. Results were normalized considering the mean optical density value of control wells as 100%. GraphPad Prism 6 (La Jolla, CA, USA) software was used to calculate EC50 values.

The subject of the next data set is MiaPaCa-2 cells. The data set is described as follows: MTT viability assay. The format is cell-based, human. Particulars: mean ± SD, n = 3. As to the method:
as §1, §2

In the next data set the test system is Panc-1 cells. The data set is described as follows: MTT viability assay. The class given is cell-based, human. Particulars: mean ± SD, n = 3. As to the method:
as §1, §2

The subject of a further data set is Panc89 cells. Kind of data set: MTT viability assay. The format is cell-based, human. Particulars: 48 h incubation, mean ± SD, n = 3. As to the method: as §1, §2
Another data set concerns CK1δ/ε. Particulars: read-out: IC50 CK1δ/ε; cited from earlier work.
The next data set deals with CK1α. Particulars: read-out: IC50 CK1α; cited from earlier work.
Data set [1] can be described thus: Chemical stability in DMSO solution by HPLC analysis. The class given is physicochemical. The settings on record: within a short period of time after preparing a solution in DMSO. From the text: The binding modes described above are based on (E)-configured cinnamic moieties of 1 and 2, respectively. […] Accordingly, computational analysis assume these (Z)-stereoisomers to be less bioactive. Furthermore, the acrylamide Michael acceptor moiety of the cinnamic acid side chain was considered responsible for the observed chemical instability of 1 and 2 in solution. […] Consequently, our primary goal towards an optimized inhibitor was to gain chemical stability. Thus, having identified the cinnamic side chain to be responsible for the chemical instability issue we aimed towards stable side chains attached at the validated 2-aminopyridine core moiety. By these modifications we set out to explore the respective hydrophobic region II formerly occupied by the cinnamic acid moiety. At the same time, both potency and selectivity for CK1δ were taken into account. Therefore, in our systematic approach four structurally divergent series of inhibitors with variable side chains (Scheme 1) have been designed based on the following considerations.
They were stable in DMSO solution at room temperature without detectable degradation over a period of 72 h by HPLC analysis.

A further data set has as its system CK1ε. The arrangement: method as in PMID 19591487. The settings on record: cited from earlier work.
Another data set concerns the target CK1δ (Homo sapiens, UniProt P48730). The arrangement: method as in PMID 19591487. The settings on record: CK1δ versus CK1ε; cited from earlier work.
[2] abbreviates: Homo sapiens, COLO357, 48 h incubation.
Where [3] appears, read: Homo sapiens, MIA PaCa-2, 48 h incubation.
Where [4] appears, read: Homo sapiens, PANC-1, 48 h incubation.

Sequence of CK1δ (P48730 whole entry): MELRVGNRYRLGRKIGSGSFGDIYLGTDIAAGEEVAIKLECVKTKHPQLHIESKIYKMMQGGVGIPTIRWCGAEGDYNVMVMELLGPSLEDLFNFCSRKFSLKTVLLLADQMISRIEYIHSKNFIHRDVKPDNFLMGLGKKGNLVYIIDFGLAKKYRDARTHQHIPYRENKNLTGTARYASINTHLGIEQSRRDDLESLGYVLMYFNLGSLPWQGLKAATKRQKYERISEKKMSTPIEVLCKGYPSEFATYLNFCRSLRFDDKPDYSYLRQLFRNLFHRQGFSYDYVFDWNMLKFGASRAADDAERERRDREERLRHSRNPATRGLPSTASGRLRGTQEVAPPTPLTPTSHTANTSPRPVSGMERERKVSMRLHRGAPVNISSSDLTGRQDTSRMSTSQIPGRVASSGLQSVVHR

In the data set with HT-29 cells, `CSc1nc(-c2ccnc(NCCc3c[nH]c4ccccc34)c2)c(-c2ccc(F)cc2)[nH]1` [10e, N-(2-(1H-Indol-3-yl)-ethyl)-4-(5-(4-fluorophenyl)-2-(methylthio)-1H-imidazol-4-yl)-pyridin-2-amine] registered an EC50 of 9.3 µM.

As for `COc1ccc(CCC(=O)Nc2cc(-c3nc(SC)[nH]c3-c3ccc(F)cc3)ccn2)c(OC)c1` [11a, 3-(2,4-Dimethoxyphenyl)-N-(4-(5-(4-fluorophenyl)-2-(methylthio)-1H-imidazol-4-yl)-pyridin-2-yl)propanamide], the EC50 in the data set on Colo357 cells (setting [2]) worked out at 4.1 ± 1.7 µM; with MiaPaCa-2 cells (setting [3]), 4.9 ± 0.8 µM; with Panc-1 cells (setting [4]), 7 ± 0.7 µM; in the data set on Panc89 cells (Homo sapiens) it was 2.5 ± 1 µM.

`COc1cccc(CCC(=O)Nc2cc(-c3nc(SC)[nH]c3-c3ccc(F)cc3)ccn2)c1OC` [11c, 3-(2,3-Dimethoxyphenyl)-N-(4-(5-(4-fluorophenyl)-2-(methylthio)-1H-imidazol-4-yl)-pyridin-2-yl)-propanamide]: the EC50 turned out to be 1.9 ± 0.6 µM in the data set with Colo357 cells (setting [2]) and 6.1 ± 3 µM in the data set with Panc89 cells (Homo sapiens).

Take `COc1ccc(CCC(=O)Nc2cc(-c3nc(SC)[nH]c3-c3ccc(F)cc3)ccn2)cc1OC` [11d, 3-(3,4-Dimethoxyphenyl)-N-(4-(5-(4-fluorophenyl)-2-(methylthio)-1H-imidazol-4-yl)-pyridin-2-yl)-propanamide]: the values for the EC50 with Colo357 cells (setting [2]) and in the data set on Panc89 cells (Homo sapiens) were 5.9 ± 2.4 µM and 7.8 ± 0.4 µM, respectively.

Take `COc1cc(CCC(=O)Nc2cc(-c3nc(SC)[nH]c3-c3ccc(F)cc3)ccn2)cc(OC)c1OC` [11e, 3-(3,4,5-Trimethoxyphenyl)-N-(4-(5-(4-fluorophenyl)-2-(methylthio)-1H-imidazol-4-yl)-pyridin-2-yl)-propanamide]: the results for the 50% effective concentration (EC50) with Colo357 cells (setting [2]) and in the data set with Panc89 cells (Homo sapiens) were 4.5 ± 1.3 µM and 8.3 ± 2.2 µM, respectively.

As for `COc1ccc(NC(=O)Nc2cc(-c3nc(SC)[nH]c3-c3ccc(F)cc3)ccn2)c(OC)c1` [12a, 1-(2,4-Dimethoxyphenyl)-3-(4-(5-(4-fluorophenyl)-2-(methylthio)-1H-imidazol-4-yl)-pyridin-2-yl)carbamide], the half-maximal effective concentration (EC50) with Colo357 cells (setting [2]) came out at 17.4 ± 0.04 µM; in the data set on MiaPaCa-2 cells (setting [3]), 15.22 ± 0.04 µM; in the data set on Panc-1 cells (setting [4]) it was 16.1 ± 5.6 µM; in the data set with Panc89 cells (Homo sapiens) it was 19.6 ± 3.8 µM.

Take `COc1ccc(OC)c(NC(=O)Nc2cc(-c3nc(SC)[nH]c3-c3ccc(F)cc3)ccn2)c1` [12b, 1-(2,5-Dimethoxyphenyl)-3-(4-(5-(4-fluorophenyl)-2-(methylthio)-1H-imidazol-4-yl)-pyridin-2-yl)carbamide]: the values for the EC50 in the data set on Colo357 cells (48 h incubation), in the data set with MiaPaCa-2 cells (48 h incubation) and with Panc-1 cells (48 h incubation) were 15.5 ± 1.6 µM, 11.6 ± 1.1 µM and 15.2 ± 2.6 µM, respectively.

`CSc1nc(-c2ccnc(NC(=O)Nc3ccc(C)c(Cl)c3)c2)c(-c2ccc(F)cc2)[nH]1` [12e, 1-(3-Chloro-4-methylphenyl)-3-(4-(5-(4-fluorophenyl)-2-(methylthio)-1H-imidazol-4-yl)-pyridin-2-yl)-carbamide]: the EC50 in the data set with Colo357 cells (48 h incubation) was found to be 14.9 ± 2.6 µM; in the data set with Panc89 cells it was 7.5 ± 3 µM.

Consider `COc1ccc(-c2cc(C(=O)Nc3cc(-c4nc(SC)[nH]c4-c4ccc(F)cc4)ccn3)n(C)c2)c(OC)c1` [16a, 4-(2,4-Dimethoxyphenyl)-N-(4-(5-(4-fluorphenyl)-2-(methylthio)-1H-imidazol-4-yl)-pyridin-2-yl)-1-methyl-1H-pyrrole-2-carboxamide], for which the figures for the EC50 in the data set on MiaPaCa-2 cells (setting [3]) and in the data set with Panc-1 cells (setting [4]) were 2.4 ± 0.7 µM and 5.1 ± 1.6 µM, respectively.

Take `COc1ccc(OC)c(-c2cc(C(=O)Nc3cc(-c4nc(SC)[nH]c4-c4ccc(F)cc4)ccn3)n(C)c2)c1` [16b, 4-(2,5-Dimethoxyphenyl)-N-(4-(5-(4-fluorphenyl)-2-(methylthio)-1H-imidazol-4-yl)-pyridin-2-yl)-1-methyl-1H-pyrrole-2-carboxamide]: the EC50 in the data set with Colo357 cells (48 h incubation) was determined as 5.7 ± 2.2 µM; in the data set with MiaPaCa-2 cells (48 h incubation), 2.3 ± 0.2 µM; with Panc-1 cells (48 h incubation) it was 5.4 ± 1.5 µM; with Panc89 cells, 7.3 ± 1.9 µM.

Take `COc1ccc(-c2cc(C(=O)Nc3cc(-c4nc([S+](C)[O-])[nH]c4-c4ccc(F)cc4)ccn3)n(C)c2)c(OC)c1` (stereo not drawn) [16c, 4-(2,4-Dimethoxyphenyl)-N-(4-(5-(4-fluorophenyl)-2-(methylsulfinyl)-1H-imidazol-4-yl)-pyridin-2-yl)-1-methyl-1H-pyrrol-2-carboxamide]: the figures for the EC50 with Colo357 cells (setting [2]), in the data set on MiaPaCa-2 cells (setting [3]) and with Panc-1 cells (setting [4]) were 16.7 ± 5.6 µM, 7.7 ± 2.5 µM and 10.2 ± 3.2 µM, respectively.

As to `COc1cc(OC)c(C=C2C(O)=Nc3ccccc32)c(OC)c1` [IC261], the IC50 in the data set with CK1δ/ε was 1000 nM; in the data set on CK1α, 10 µM.

Regarding `COc1ccc(/C=C/C(=O)Nc2cc(-c3nc(SC)[nH]c3-c3ccc(F)cc3)ccn2)c(OC)c1` [compound 1], the “chemical stability in DMSO solution (HPLC analysis)” value in [1] is given as “increasing number of not identifiable degradation products”. The IC50 in the data set on CK1ε was 73 nM.

As for `COc1ccc(C=CC(=O)Nc2cc(-c3nc([S+](C)[O-])[nH]c3-c3ccc(F)cc3)ccn2)c(OC)c1` (stereo not drawn) [compound 2], the “chemical stability in DMSO solution (HPLC analysis)” value in [1] is listed as “increasing number of not identifiable degradation products”. Also, the “discrimination of isoforms δ and ε” value on CK1δ was “at least 40 fold”. In the data set with CK1ε, the IC50 was 447 nM.
